Measured values taken from patent US10889581B2, “Cyclopropyl fused thiazine derivatives as beta-secretase inhibitors and methods of use” (AMGEN INC., priority 2016, dated 2021).
pIC50: −log10 of the molar value.

Legend:
BACE1 [1] = target: T1, BACE1 (Homo sapiens (Human), UniProt P56817); test: In vitro enzymatic BACE1 FRET assay; type: biochemical; settings: pH 4.5, read-out: BACE1 Enzyme IC50
Target sequence in this assay (P56817 46-501): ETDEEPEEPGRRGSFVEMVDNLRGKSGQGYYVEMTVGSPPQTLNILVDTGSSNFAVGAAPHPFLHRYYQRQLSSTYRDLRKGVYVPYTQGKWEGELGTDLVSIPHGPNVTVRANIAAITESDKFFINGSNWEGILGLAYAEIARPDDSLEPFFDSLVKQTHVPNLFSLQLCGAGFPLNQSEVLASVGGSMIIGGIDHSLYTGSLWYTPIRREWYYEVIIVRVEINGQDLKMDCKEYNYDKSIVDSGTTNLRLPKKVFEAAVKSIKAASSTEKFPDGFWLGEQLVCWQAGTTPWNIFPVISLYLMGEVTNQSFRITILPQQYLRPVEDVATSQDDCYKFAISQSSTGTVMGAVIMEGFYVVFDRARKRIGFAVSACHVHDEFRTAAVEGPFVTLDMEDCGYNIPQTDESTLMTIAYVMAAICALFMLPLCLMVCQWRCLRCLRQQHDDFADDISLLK

BACE1 [2] = target: T1, BACE1; test: In vitro BACE1 cell-based assay (Aβ40 in conditioned medium of cells stably expressing APP, HTRF)
Description: In Vitro BACE1 Cell-Based Assay
The cell-based assay measures inhibition or reduction of Aβ40 in conditioned medium of test compound treated cells expressing amyloid precursor protein. Cells stably expressing Amyloid Precursor Protein (APP) were plated at a density of 45K cells/well in 384 well plates (Corning/BioCoat 354663). The test compounds were then added to cells in 22-point dose response concentrations with the starting concentration being 62.5 μM. The compounds were diluted from stock solutions in DMSO and the final DMSO concentration of the test compounds on cells was 0.625%. The cells were cultivated overnight at 37° C. and 5% CO2 in DMEM supplemented with 10% FBS. After 24 h of incubation with the test compounds, the conditioned media was collected and the Aβ40 levels were determined using HTRF (Homogeneous Time Resolved Fluorescence). The IC50 of the compound was calculated from the percent of control or percent inhibition of Aβ40 as a function of the concentration of the test compound.
The HTRF to detect Aβ40 was performed in 384 well plates (Costar 3658). The antibody pair that were used to detect Aβ40 from cell supernatants were ConfAb40 antibody (Amgen in-house) and biotinylated 6E10 (BIOLEGEND). As an alternative to ConfAb40, a commercially available antibody, Anti-beta Amyloid 1-40 antibody [BDI350] from Abcam, Cambridge, Mass. 02139-1517 (Product code: ab20068), may be used in this assay. The concentrations were 0.35 μg/mL of ConfAb40 antibody and 1.33 μg/mL of 6E10-biotinylated antibody, as well as 4.5 μg/mL of Streptavidin Allophycocyanin Conjugate (ThermoFisher Scientific) in HTRF Buffer ([…], 1% BSA, 0.5% Tween 20).
The conditioned media was incubated with above antibodies and Streptavidin Allophycocyanin Conjugate for 30-60 minutes at 23° C. The final readout was performed on Envision from PerkinElmer.
Target sequence in this assay (P56817 46-501, species assumed): as the sequence (P56817 46-501) above

Recombinant CatD = Recombinant CatD (Homo sapiens (Human), UniProt P07339); test: In vitro enzymatic Cathepsin D (CatD) FRET assay; type: biochemical; settings: pH 3.5, read-out: Cat D Enzyme IC50
human recombinant BACE2 = human recombinant BACE2 (Homo sapiens (Human), UniProt Q9Y5Z0); test: In vitro enzymatic BACE2 FRET assay; type: biochemical; settings: pH 4.5, read-out: BACE2 Enzyme IC50
Aβ peptide [3] = settings: nonhuman primates; cited from earlier work
[4] = cited from earlier work
Aβ peptide [5] = settings: oral dose of 95 mg once daily; cited from earlier work
[6] = system: pigment epithelium of the rat's eye; settings: higher compound dose given for three months; cited from earlier work
Aβ peptide [7] = settings: sustained and dose-dependent; cited from earlier work

human recombinant BACE2, sequence (Q9Y5Z0 63-518): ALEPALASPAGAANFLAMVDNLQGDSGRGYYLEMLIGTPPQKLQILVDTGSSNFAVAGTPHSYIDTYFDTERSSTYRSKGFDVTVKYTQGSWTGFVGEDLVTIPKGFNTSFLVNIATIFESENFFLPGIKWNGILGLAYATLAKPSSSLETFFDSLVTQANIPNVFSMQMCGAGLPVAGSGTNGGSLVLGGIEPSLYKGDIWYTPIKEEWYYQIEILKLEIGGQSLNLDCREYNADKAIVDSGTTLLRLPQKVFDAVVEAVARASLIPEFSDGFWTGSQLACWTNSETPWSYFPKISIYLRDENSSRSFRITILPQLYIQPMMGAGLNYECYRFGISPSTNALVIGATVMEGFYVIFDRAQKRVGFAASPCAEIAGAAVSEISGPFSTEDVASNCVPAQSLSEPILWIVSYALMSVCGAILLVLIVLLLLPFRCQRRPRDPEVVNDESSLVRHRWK
Recombinant CatD, sequence (P07339 65-412): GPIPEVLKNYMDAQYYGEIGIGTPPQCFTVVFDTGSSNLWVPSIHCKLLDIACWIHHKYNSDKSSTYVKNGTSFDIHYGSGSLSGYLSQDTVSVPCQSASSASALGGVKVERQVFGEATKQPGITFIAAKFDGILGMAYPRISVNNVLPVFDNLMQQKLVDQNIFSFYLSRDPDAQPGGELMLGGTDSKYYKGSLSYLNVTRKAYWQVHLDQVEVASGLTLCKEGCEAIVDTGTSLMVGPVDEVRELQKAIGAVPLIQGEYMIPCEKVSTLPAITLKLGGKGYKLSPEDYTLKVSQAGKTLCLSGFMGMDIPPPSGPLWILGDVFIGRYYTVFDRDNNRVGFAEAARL

SMILES | pIC50 (BACE1 [1]) | pIC50 (BACE1 [2]) | pIC50 (Recombinant CatD) | pIC50 (human recombinant BACE2) | further results
Cc1cc(C#N)cnc1C#Cc1cnc(F)c([C@@]2(C)N=C(N)S[C@@]3(C(=O)N4CCOCC4)CC32)c1 (stereo partly drawn) [Example 136, 6-((5-((1S,5S)-3-amino-5-methyl-1-(morpholine-4-carbonyl)-2-thia-4-azabicyclo[4.1.0]hept-3-en-5-yl)-6-fluoropyridin-3-yl)ethynyl)-5-methylnicotinonitrile] | 7.43 | 6.74 | < 3.40 | 6.01 | 
Cc1cc(C#N)cnc1C#Cc1cnc(F)c([C@@]2(C)N=C(N)S[C@@]3(C(=O)N4CCCC4)CC32)c1 (stereo partly drawn) [Example 137, 6-((5-((1S,5S)-3-amino-5-methyl-1-(pyrrolidine-1-carbonyl)-2-thia-4-azabicyclo[4.1.0]hept-3-en-5-yl)-6-fluoropyridin-3-yl)ethynyl)-5-methylnicotinonitrile] | 7.96 | 7.46 | < 3.40 | 6.32 | 
NC1=N[C@](CF)(c2cc(C#Cc3cc(Cl)ccn3)ccc2F)[C@@H]2C[C@]2(CF)S1 [Example 138, (1S,5S,6S)-5-(5-((4-chloropyridin-2-yl)ethynyl)-2-fluorophenyl)-1,5-bis(fluoromethyl)-2-thia-4-azabicyclo[4.1.0]hept-3-en-3-amine] | 5.95 | 5.31 | 3.04 | 7.11 | 
C[C@H]1OC[C@]2(c3cc(NC(=O)c4cnc(C(F)F)cn4)ccc3F)N=C(N)SC[C@H]12 [Example E2609] |  |  |  |  | reduction in Aβ peptide levels in the CSF and plasma (Aβ peptide [3]): significant reduction; clinical safety concerns ([4]; repeated doses up to 200 mg, phase I clinical trial): did not show clinical significant safety concerns
C[C@@]1(c2cc(NC(=O)c3ccc(C#N)cn3)ccc2F)C=CSC(N)=N1 [JNJ-54861911] |  |  |  |  | Aβ peptide reduction in CSF (Aβ peptide [5]): up to 95%
C[C@@]1(c2cc(-c3cncnc3)c(F)cc2F)CCSC(N)=N1 [LY 2811376] |  |  |  |  | eye toxicity finding [6]: damaged the pigment epithelium of the rat's eye
CN1C(=N)N[C@](C)(c2cc(NC(=O)c3ccc(F)cn3)ccc2F)CS1(=O)=O [MK-8931] |  |  |  |  | CSF Aβ peptide concentrations (Aβ peptide [7]): significantly reduced; safety profile ([4]; phase I clinical trials): excellent safety profile with no immediately noticeable side effects
